≈ marks a conversion by molar mass, not a printed value. Where two headings read alike, the source gives them in different places. Where a SMILES comes first, the peptide text is derived from it. Where no end group is shown, it is not given here. [ ]: non-standard residue; d: D form.
How the values were obtained:
[1] = tested on: A. actinomycetemcomitans NCTC 9710; assay: microbe, parasite or virus in culture; type: cell-based; conditions: for MBC / MIC: Aggregatibacter actinomycetemcomitans, NCTC9710
Source text: (§1) The bacteria used in this study included Streptococcus mutans ATCC10449, Streptococcus mutans AU 159, Streptococcus mutans GS-5, Streptococcus mutans GS-5 mutant (^gtf BCD), Streptococcus gordonii Challis, Porphyromonas gingivalis W50, Porphyromonas gingivalis 381, A. actinomycetemcomitans NCTC 9710, Pseudomonas aeruginosa ATCC 17648, and Escherichia coli HB101. One quarter strength (25%) of brain heart infusion broth (BHI, DIFCO Laboratories, Detroit, Mich.) was used for the growth of S. mutans, S. gordonii, A. actinomycetemcomitans, Ps. aeruginosa, and E. coli. For growth of P. gingivalis, tryptic soy broth-yeast extract medium (TSBY, DIFCO Laboratories, Detroit, Mich.) supplemented with cysteine hydrochloride (0.05%), menadione (0.02 μg/ml), hemin (5 μg/ml), and potassium nitrate (0.02%) was used. All bacteria were cultured at 37° C.; Ps. aeruginosa and E. coli were grown aerobically, and the other bacteria, anaerobically. To prepare bacterial cell suspension for antibacterial activity assays, each overnight culture was harvested by centrifuge (3783 g, 10 min), washed once with 10 mM sodium phosphate-buffered saline (PBS, pH 7.2), resuspended in PBS and adjusted to a concentration of 1×10^6 cells/mL.
(§2) MICs of the peptides were determined by broth microdilution method as previously described (5). Briefly, two-fold serial dilutions of each peptide were prepared with 25% BHI medium at a volume of 200 μl per well in 96-well flat-bottom microtiter plates (Costar, Cambridge, Mass.). The final concentration of the peptides ranged from 0.78 to 100 μM, and chlorhexidine (CHX), used as a positive control, from 20 to 0.16 μM (10 to 0.078 μg/mL). The microtiter plate was inoculated with bacterial cell suspension with final concentration of 5×10^6 CFU/mL for P. gingivalis and 5×10^5 CFU/mL for the other bacterial species. After incubation at 37° C. for 48 h, the absorbance was measured at 595 nm by using a microplate reader (Model 3550, Bio-Rad, Japan) to assess the cell growth. […] The MIC value represents the median of at least three independent experiments. The minimal bactericidal concentration (MBC) was determined as follows. Aliquot (100 μl) of cell suspension was taken from two wells above MIC, centrifuged, and washed three times with PBS. Then each cell suspension was plated on TSBY agar plate, and bacterial cells were enumerated after incubation at 37° C. for 48 h. The MBC was defined as the lowest concentration of the peptide at which more than 99.9% of cells were killed compared to non-treated control.

E. coli HB101 = assay: microbe, parasite or virus in culture; type: cell-based, Escherichia coli; conditions: for MBC / MIC: Escherichia coli, HB101
Source text: as §1, §2

S. mutans GS-5 biofilm = type: cell-based, Streptococcus mutans
Description: FIG. 11. Effect of peptides on the biofilm formation of S. mutans. The bacterial cells (5×10^5 cfu ml^−1) were inoculated in 96-well microtiter plate containing 25% BHIS medium with different concentration of each agent. Culture without agent was used as no treatment control. After incubation at 37° C. for 24 h, absorbance at 595 nm was recorded to assess the cell growth. Biofilm assay was performed by discarding the supernatants, washing with PBS, fixing with methanol, and staining with CV. The absorbance at 570 nm was recorded to assess the amount of biofilm. The activity was expressed as % of control. Data represents mean and SD of two independent tests with duplicates for each. Empty bar: growth, solid bar: biofilm.
The effect of the peptides on S. mutans in biofilm formation was examined by the microdilution method. This method is similar to the MIC assay for planktonic cells. Two-fold serial dilutions of each peptide were prepared in wells of polystyrene microtiter plates (Microtest tissue culture plate, 96 well, Falcon, Becton Dickinson and Company, N.J.) containing 25% BHI medium supplemented with 1% sucrose (BHIS) at a volume of 200 μl per well. The final concentration of the peptide ranged from 0.78 to 100 μM for each peptide. Chlorhexidine (CHX, 0.078 to 10 μg/mL) was used as the positive control, the medium without drug as the non-treated control, and the medium alone as the blank control. The cells suspension of S. mutans GS-5 was prepared as describe in MIC assay and 20 μl aliquot (final concentration of cells 5×10^5 CFU/mL) was inoculated to the wells of polystyrene microtiter plates. After incubation at 37° C. for 20 h, the culture supernatants from each well were decanted and planktonic cells were removed by washing with PBS, pH 7.2. The biofilm was fixed with methanol for 15 min and then air dried at room temperature. The biofilm was then stained with 0.1% (wt/vol) crystal violet (Sigma) for 5 min. and rinsed thoroughly with water until the control wells appeared colorless. Biofilm formation was quantified by the addition of 200 μl of 95% ethanol to each crystal violet-stained well. The plate was rocked at room temperature for 30 min and the absorbance at 595 nm (A595 nm) was determined with a microplate reader (BioRad Model 3550 Microplate Reader). Percentage of inhibition was calculated with the equation: (1−A595 nm of the test/A595nm of non-treated control)×100.

[2] = lowest concentration with 50% or more inhibition of biofilm formation

Molecule | MBC (μM) ([1]; NCTC 9710) [µM] | MBC (μg/ml) ([1]; NCTC 9710) [µg/mL] | MIC (μM) ([1]; NCTC 9710) [µM] | MIC (μg/ml) ([1]; NCTC 9710) [µg/mL] | MBC (μM) (E. coli HB101) [µM] | MIC (μM) (E. coli HB101) [µM] | MBIC50 (S. mutans GS-5 biofilm; GS-5 biofilm, 24 h) [µM] | MBIC50 (S. mutans GS-5 biofilm) [µg/mL] | MBIC50 (S. mutans GS-5 biofilm; [2]) [µM] | also measured
CC(C)C[C@@H](NC(=O)[C@@H](CS)NC(=O)[C@@H](CCCCN)NC(=O)[C@@H](Cc1ccc(O)cc1)NC(=O)[C@@H](CO)NC(=O)[C@@H](CCCCN)NC(=O)[C@H](N)CCCNC(=N)N)C(=O)N[C@H](Cc1c[nH]cn1)C(=O)N[C@H](CCCCN)C(=O)N[C@H](CCCNC(=N)N)C(=O)N[C@H](CS)C(=O)N[C@H](CCCNC(=N)N)C(=O)O [MUC7 12-mer-D] (H-[dR][dK][dS][dY][dK][dC][dL][dH][dK][dR][dC][dR]-OH; N-terminus and C-terminus assumed) | >100 | >158 | >100 | >158 | 12.5 (≈ 19.7 µg/mL) | 12.5 (≈ 19.7 µg/mL) | 6.25 |  |  | 
CC(C)C[C@H](NC(=O)[C@H](CS)NC(=O)[C@H](CCCCN)NC(=O)[C@H](Cc1ccc(O)cc1)NC(=O)[C@H](CO)NC(=O)[C@H](CCCCN)NC(=O)[C@@H](N)CCCNC(=N)N)C(=O)N[C@@H](Cc1c[nH]cn1)C(=O)N[C@@H](CCCCN)C(=O)N[C@@H](CCCNC(=N)N)C(=O)N[C@@H](CS)C(=O)N[C@@H](CCCNC(=N)N)C(=O)O [MUC7 12-mer-L] (H-RKSYKCLHKRCR-OH; N-terminus and C-terminus assumed) | >100 | >158 | >100 | >158 | 25.0 (≈ 39.4 µg/mL) | 25.0 (≈ 39.4 µg/mL) | 12.5 |  |  | 
GIGKFLHSAKKFGKAFVGEIMNS [Magainin-II] |  |  |  |  | 12.5 | 12.5 |  | 62 | 25 | MBC (μM) [1]: 50.0 µM; MBC (μg/ml) [1]: 123.5 µg/mL; MIC (μM) [1]: 50.0 µM; MIC (μg/ml) [1]: 123.5 µg/mL; MBC (μg/ml) (E. coli HB101): 30.9 µg/mL; MIC (μg/ml) (E. coli HB101): 30.9 µg/mL
AKRHHGYKRKFH [Hsn5 12-mer] | >100 | >158 | >100 | >158 | 100.0 | 100.0 | 25 |  |  | 
[H]/N=C(\N/C(=N/[H])NCCCCCCNC(=N)NC(=N)Nc1ccc(Cl)cc1)Nc1ccc(Cl)cc1 [Chlorhexidine, Chlorhexidine digluconate] |  |  |  |  |  |  |  | 0.625 | 1.25 | MBC ([1]; read-out: MBC): 20 µM; MBC ([1]; read-out: MBC (μg/ml)): 10.1 µg/mL; MIC ([1]; read-out: MIC): 20 µM; MIC ([1]; read-out: MIC (μg/ml)): 10.1 µg/mL; MBC (E. coli HB101; read-out: MBC): 2.5 µM; MBC (E. coli HB101; read-out: MBC (μg/ml)): 1.3 µg/mL; MIC (E. coli HB101; read-out: MIC): 2.5 µM; MIC (E. coli HB101; read-out: MIC (μg/ml)): 1.3 µg/mL
